From PubChem BioAssay (NCI)
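Cultured in 96-well plates, cells were exposed to test compound for 48 hours across five concentrations. GI50 = concentration required for 50% inhibition of growth. TGI is the concentration that stops growth completely.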

Key:
Test in all cases: growth of human tumour cells (NCI), 48 h
SNB-19 CNS = tested on: SNB-19 CNS
KM12 colon = tested on: KM12 colon
HOP-92 NSCLC = tested on: HOP-92 NSCLC
T-47D breast = tested on: T-47D breast
ACHN renal = tested on: ACHN renal
NCI-H23 lung = tested on: NCI-H23 lung
SK-OV-3 ovarian = tested on: SK-OV-3 ovarian
SF-295 CNS = tested on: SF-295 CNS
NCI-H522 lung = tested on: NCI-H522 lung
MDA-MB-435 = tested on: MDA-MB-435
UACC-257 melanoma = tested on: UACC-257 melanoma
BT-549 breast = tested on: BT-549 breast
A498 renal = tested on: A498 renal
CAKI-1 renal = tested on: CAKI-1 renal
SW-620 colon = tested on: SW-620 colon
786-0 renal = tested on: 786-0 renal
RPMI-8226 leukemia = tested on: RPMI-8226 leukemia
MALME-3M melanoma = tested on: MALME-3M melanoma
SK-MEL-2 melanoma = tested on: SK-MEL-2 melanoma
HS 578T breast = tested on: HS 578T breast
OVCAR-5 ovarian = tested on: OVCAR-5 ovarian
OVCAR-3 ovarian = tested on: OVCAR-3 ovarian
PC-3 prostate = tested on: PC-3 prostate
A549 NSCLC = tested on: A549 NSCLC
RXF 393 renal = tested on: RXF 393 renal
CCRF-CEM leukemia = tested on: CCRF-CEM leukemia
DU-145 prostate = tested on: DU-145 prostate
HL-60(TB) leukemia = tested on: HL-60(TB) leukemia
HT29 colon = tested on: HT29 colon
COLO 205 colon = tested on: COLO 205 colon
MOLT-4 leukemia = tested on: MOLT-4 leukemia
U251 CNS = tested on: U251 CNS
HCC-2998 colon = tested on: HCC-2998 colon
HOP-62 NSCLC = tested on: HOP-62 NSCLC
NCI/ADR-RES ovarian = tested on: NCI/ADR-RES ovarian
SK-MEL-28 melanoma = tested on: SK-MEL-28 melanoma
MCF7 breast = tested on: MCF7 breast
SF-539 CNS = tested on: SF-539 CNS
UO-31 renal = tested on: UO-31 renal
OVCAR-8 ovarian = tested on: OVCAR-8 ovarian
SR leukemia = tested on: SR leukemia
SNB-75 CNS = tested on: SNB-75 CNS
IGROV1 ovarian = tested on: IGROV1 ovarian
SK-MEL-5 melanoma = tested on: SK-MEL-5 melanoma
K-562 leukemia = tested on: K-562 leukemia
UACC-62 melanoma = tested on: UACC-62 melanoma
NCI-H226 lung = tested on: NCI-H226 lung
OVCAR-4 ovarian = tested on: OVCAR-4 ovarian
EKVX NSCLC = tested on: EKVX NSCLC
HCT-116 colon = tested on: HCT-116 colon
NCI-H460 lung = tested on: NCI-H460 lung
LOX IMVI melanoma = tested on: LOX IMVI melanoma
SF-268 CNS = tested on: SF-268 CNS
MDA-MB-231 breast = tested on: MDA-MB-231 breast
SN12C renal = tested on: SN12C renal
M14 melanoma = tested on: M14 melanoma
HCT-15 colon = tested on: HCT-15 colon
TK-10 renal = tested on: TK-10 renal

Cc1nc2cnc(N)c(C#Cc3cncc(C(=O)Nc4ccc(Cl)c(C(F)(F)F)c4)c3)c2nc1C
GI50 (SNB-19 CNS): 6.53 µM | TGI (SNB-19 CNS): 20.7 µM | TGI (KM12 colon): 3.53 µM | GI50 (HOP-92 NSCLC): 0.196 µM | TGI (HOP-92 NSCLC): 1.78 µM | GI50 (T-47D breast): 5.02 µM | TGI (T-47D breast): 27.6 µM | GI50 (ACHN renal): 1.89 µM | TGI (ACHN renal): 12.1 µM | GI50 (NCI-H23 lung): 0.579 µM | TGI (NCI-H23 lung): 5.4 µM | GI50 (SK-OV-3 ovarian): 9.11 µM | TGI (SK-OV-3 ovarian): 23.3 µM | GI50 (SF-295 CNS): 3.44 µM | TGI (SF-295 CNS): 18.8 µM | GI50 (NCI-H522 lung): 1.8 µM | TGI (NCI-H522 lung): 14.8 µM | GI50 (MDA-MB-435): 0.442 µM | TGI (MDA-MB-435): 4.06 µM | GI50 (UACC-257 melanoma): 0.519 µM | TGI (UACC-257 melanoma): 9.65 µM | GI50 (BT-549 breast): 1.99 µM | TGI (BT-549 breast): 6.64 µM | GI50 (A498 renal): 3.1 µM | TGI (A498 renal): 15.4 µM | GI50 (CAKI-1 renal): 2.26 µM | TGI (CAKI-1 renal): 15.6 µM | GI50 (SW-620 colon): 0.891 µM | TGI (SW-620 colon): 11.2 µM | GI50 (786-0 renal): 3.41 µM | TGI (786-0 renal): 17.9 µM | GI50 (RPMI-8226 leukemia): 3.32 µM | TGI (RPMI-8226 leukemia): 22.5 µM | GI50 (MALME-3M melanoma): 0.118 µM | TGI (MALME-3M melanoma): 0.825 µM | GI50 (SK-MEL-2 melanoma): 0.328 µM | TGI (SK-MEL-2 melanoma): 1.89 µM | GI50 (HS 578T breast): 1.64 µM | TGI (HS 578T breast): 7.19 µM | GI50 (OVCAR-5 ovarian): 0.383 µM | TGI (OVCAR-5 ovarian): 11.3 µM | GI50 (OVCAR-3 ovarian): 3.33 µM | TGI (OVCAR-3 ovarian): 12.7 µM | GI50 (PC-3 prostate): 3.9 µM | TGI (PC-3 prostate): 18.7 µM | GI50 (A549 NSCLC): 3.27 µM | TGI (A549 NSCLC): 22.6 µM | GI50 (RXF 393 renal): 0.799 µM | TGI (RXF 393 renal): 4.23 µM | GI50 (CCRF-CEM leukemia): 3.75 µM | TGI (CCRF-CEM leukemia): 52.8 µM | GI50 (DU-145 prostate): 2.93 µM | TGI (DU-145 prostate): 13.3 µM | GI50 (HL-60(TB) leukemia): 0.0754 µM | TGI (HL-60(TB) leukemia): 4.12 µM | GI50 (HT29 colon): 0.346 µM | TGI (HT29 colon): 2.11 µM | GI50 (COLO 205 colon): 0.442 µM | TGI (COLO 205 colon): 9.17 µM | GI50 (MOLT-4 leukemia): 1.68 µM | TGI (MOLT-4 leukemia): 5.82 µM | GI50 (U251 CNS): 2.88 µM | TGI (U251 CNS): 16.9 µM | GI50 (HCC-2998 colon): 0.771 µM | TGI (HCC-2998 colon): 4.35 µM | GI50 (HOP-62 NSCLC): 1.87 µM | TGI (HOP-62 NSCLC): 18.7 µM | GI50 (NCI/ADR-RES ovarian): 2.95 µM | TGI (NCI/ADR-RES ovarian): 19.1 µM | GI50 (SK-MEL-28 melanoma): 0.264 µM | TGI (SK-MEL-28 melanoma): 1.68 µM | GI50 (MCF7 breast): 1.91 µM | TGI (MCF7 breast): 6.84 µM | GI50 (SF-539 CNS): 0.518 µM | TGI (SF-539 CNS): 10.2 µM | GI50 (UO-31 renal): 0.381 µM | TGI (UO-31 renal): 10.9 µM | GI50 (OVCAR-8 ovarian): 4.45 µM | TGI (OVCAR-8 ovarian): 24.5 µM | GI50 (SR leukemia): 1.71 µM | TGI (SR leukemia): 5.02 µM | GI50 (SNB-75 CNS): 2.43 µM | TGI (SNB-75 CNS): 11.8 µM | GI50 (IGROV1 ovarian): 0.653 µM | TGI (IGROV1 ovarian): 12.6 µM | GI50 (SK-MEL-5 melanoma): 1.08 µM | TGI (SK-MEL-5 melanoma): 11.1 µM | GI50 (K-562 leukemia): 0.168 µM | TGI (K-562 leukemia): > 100 µM | GI50 (UACC-62 melanoma): 0.264 µM | TGI (UACC-62 melanoma): 2.15 µM | GI50 (NCI-H226 lung): 0.555 µM | TGI (NCI-H226 lung): 9.79 µM | GI50 (OVCAR-4 ovarian): 4.01 µM | TGI (OVCAR-4 ovarian): 17 µM | GI50 (EKVX NSCLC): 2.48 µM | TGI (EKVX NSCLC): 19.1 µM | GI50 (HCT-116 colon): 0.249 µM | TGI (HCT-116 colon): 2.11 µM | GI50 (NCI-H460 lung): 2.3 µM | TGI (NCI-H460 lung): 10.2 µM | GI50 (LOX IMVI melanoma): 0.257 µM | TGI (LOX IMVI melanoma): 1.43 µM | GI50 (SF-268 CNS): 2.46 µM | TGI (SF-268 CNS): 15.6 µM | GI50 (MDA-MB-231 breast): 0.308 µM | TGI (MDA-MB-231 breast): 5.09 µM | GI50 (SN12C renal): 1.16 µM | TGI (SN12C renal): 4 µM | GI50 (M14 melanoma): 0.243 µM | TGI (M14 melanoma): 1.85 µM | GI50 (HCT-15 colon): 1.55 µM | TGI (HCT-15 colon): 4.03 µM | GI50 (TK-10 renal): 5.32 µM | TGI (TK-10 renal): 18.9 µM
